In patent US20080139664A1, “ANTI-GLYCATION AGENTS FOR PREVENTING AGE-, DIABETES-, AND SMOKING-RELATED COMPLICATIONS” (NATIONAL RESEARCH COUNCIL OF CANADA, priority 2001, published 2008):
Where a name gives a salt, the structure may show the parent alone. Read-outs that look alike come from different tables or passages of the source.

Experiments:
[1] = system: bovine serum albumin (BSA); experiment: Maillard fluorescence-based assay of AGEs formation, IC50 determination (BSA + D-ribose); settings: inhibition of Maillard fluorescence development; 0.075 mM BSA, 50 mM D-ribose, 37° C., 5 days
[2] = system: lysozyme; experiment: ESI-MS of lysozyme glycoforms after incubation with D-ribose; settings: 37° C., 5 days; for Peak area as % of total area of all glycoforms, 14,569: lysozyme + 2D-ribose − 2H2O (14,569 Da); for Peak area as % of total area of all glycoforms, 14,551: lysozyme + 2D-ribose − 3H2O (14,551 Da); for Peak area as % of total area of all glycoforms, 14,533: lysozyme + 2D-ribose − 5H2O (14,533 Da); for Peak area as % of total area of all glycoforms, 14,515: lysozyme + 2D-ribose − 6H2O (14,515 Da); for Peak area as % of total area of all glycoforms, 14,419: lysozyme + D-ribose − 2H2O (14,419 Da); for Peak area as % of total area of all glycoforms, 14,401: lysozyme + D-ribose − 3H2O (14,401 Da); for Peak area as % of total area of all glycoforms, 14,437: lysozyme + D-ribose − H2O (14,437 Da); for Peak area as % of total area of all glycoforms, 14,496: lysozyme + D-ribose − H2O with one carboxymethylated Lys residue (14,496 Da); for Peak area as % of total area of all glycoforms, 14,364: lysozyme with one carboxymethylated Lys residue (14,364 Da); for Peak area as % of total area of all glycoforms, 14,305: unmodified lysozyme (14,305 Da);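 as to all read-outs here: lysozyme incubated with D-ribose, with or without anti-glycation agents, then separated by reversed-phase HPLC and analysed by electrospray mass spectrometry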
[3] = system: bovine serum albumin (BSA)
[4] = system: bovine serum albumin (BSA); experiment: Fluorescamine assay of free primary amino groups of BSA incubated with D-ribose; format: biochemical; settings: free primary amino group on BSA after 5 days at 37° C.; agent at 16.8 times IC50; 64% without agent
Experimental: Fluorescamine assay (Yeboah F. et al., J. Agric. Food Chem. 48, 2766-2774 (2000)) was performed on incubated mixtures of BSA and D-ribose, with or without the identified anti-glycation agents. The mixtures contained BSA (0.075 mM protein concentration or 4.53 mM of Lys residue concentration) and D-ribose (50 mM). […] The fluorescamine assay determines the number of free lysine residues of BSA. In this experiment, the final volume of the incubation mixtures was 10 mL and the incubation time was 5 days at 37° C. Prior to the fluorescamine assay, the proteins were isolated by reverse phase HPLC. The protein content was determined using the Bio-Rad protein determination reagent (Bradford method). The fluorescamine assay was done in triplicate.

For `N[C@@H](Cc1cc(I)c(O)c(I)c1)C(=O)O` [3,5-Diiodo-L-tyrosine], the IC50 [1] was 1500 µM.

With `O=C1OC(CN2CCOCC2)CN1/N=C/c1ccc([N+](=O)[O-])o1` (stereo not drawn) [Furaltadone] the “Peak area as % of total area of all glycoforms, 14,569” value [2] was 4.5%, the “Peak area as % of total area of all glycoforms, 14,551” value [2] was 2.7% and the “Peak area as % of total area of all glycoforms, 14,533” value [2] was 1.1%. For the same molecule, the “Peak area as % of total area of all glycoforms, 14,515” value [2] was 0.0%, the “Peak area as % of total area of all glycoforms, 14,419” value [2] was 6.3% and the “Peak area as % of total area of all glycoforms, 14,401” value [2] was 0.0%. For the same molecule, the “Peak area as % of total area of all glycoforms, 14,437” value [2] was 23.9%, the “Peak area as % of total area of all glycoforms, 14,496” value [2] was 0.0% and the “Peak area as % of total area of all glycoforms, 14,364” value [2] was 0.9%. The “Peak area as % of total area of all glycoforms, 14,305” value [2] was 60.6%, the IC50 [3] was 41 µM and the “maximum percentage of the inhibition” value [3] was 30%). For the same molecule, the Unreacted amino group [4] was 60%.

Work on `C[C@H](N)[C@H](O)c1ccc(O)c(O)c1` [Corbadrine] yielded an IC50 [1] of 52 µM.

In the case of `CCCCCCCCCCCCCCCC(=O)OC[C@@H](NC(=O)C(Cl)Cl)[C@H](O)c1ccc([N+](=O)[O-])cc1` [Chloramphenicol palmitate], the IC50 [1] is reported as > 4000 µM.

With `Cc1c(C)c2c(c(C)c1O)CCC(C)(C(=O)O)O2` (stereo not drawn) [Trolox C] the IC50 [1] was 470 µM.

For `COCC(N)c1ccc(O)c(O)c1` (stereo not drawn) [3,4-Dihydroxy-1-[(α-amino-β-methoxy)ethyl]benzene], the IC50 [1] was 78 µM.

`O=C1c2c(O)cc(O)cc2O[C@H](c2ccc(O)c(O)c2)[C@H]1O` [Taxifolin] was tested, and the IC50 [1] was 100 µM.

In the case of `C=CCN1CC[C@]23c4c5ccc(O)c4O[C@H]2/C(=N/N=C2\CC[C@@]4(O)[C@H]6Cc7ccc(O)c8c7[C@@]4(CCN6CC=C)[C@H]2O8)CC[C@@]3(O)[C@H]1C5` [Naloxonazine], the IC50 [1] is reported as 1700 µM.

In the case of `Cc1cc2c(C(C)C)c(O)c(O)c(C=O)c2c(O)c1-c1c(C)cc2c(C(C)C)c(O)c(O)c(C=O)c2c1O` [Gossypol], the IC50 [1] is reported as 110 µM.

Molecule `CC(=O)Nc1ncc([N+](=O)[O-])s1` [Aminitrozole] has an IC50 [1] of 82 µM.

`O=C1CN(/N=C/c2ccc(-c3ccc([N+](=O)[O-])cc3)o2)C(O)=N1` [Dantrolene] was tested, and the IC50 [1] was 100 µM.

`O=c1c(O)c(-c2ccc(O)c(O)c2)oc2cc(O)cc(O)c12` [Quercetin] was tested, and the IC50 [1] was 130 µM.

`COc1ccc(-c2cc(=O)c3c(O)cc(O)cc3o2)cc1` [Acacetin] gave an IC50 [1] of 510 µM.

In the case of `Cc1cc(-c2ccc(/N=N/c3ccc4c(S(=O)(=O)O)cc(S(=O)(=O)O)c(N)c4c3O)c(C)c2)ccc1/N=N/c1ccc2c(S(=O)(=O)O)cc(S(=O)(=O)O)c(N)c2c1O` [Evans blue], the IC50 [1] is reported as 3700 µM.

In the case of `O=[N+]([O-])c1cc([As](=O)(O)O)ccc1O` [Roxarsone], the “Peak area as % of total area of all glycoforms, 14,569” value [2] is reported as 5.1%, the “Peak area as % of total area of all glycoforms, 14,551” value [2] is reported as 1.3% and the “Peak area as % of total area of all glycoforms, 14,533” value [2] is reported as 1.2%. The “Peak area as % of total area of all glycoforms, 14,515” value [2] was 0.0%, the “Peak area as % of total area of all glycoforms, 14,419” value [2] was 3.1% and the “Peak area as % of total area of all glycoforms, 14,401” value [2] was 0.0%. For the same molecule, the “Peak area as % of total area of all glycoforms, 14,437” value [2] was 27.0%, the “Peak area as % of total area of all glycoforms, 14,496” value [2] was 0.0% and the “Peak area as % of total area of all glycoforms, 14,364” value [2] was 0.0%. The “Peak area as % of total area of all glycoforms, 14,305” value [2] was 62.4% and the IC50 [1] was 230 µM.

In the case of `CC(CCc1ccccc1)NC(CO)c1ccc(O)c(O)c1` (stereo not drawn) [3,4-Dihydroxy-1-[α-(1-methyl-3-phenyl-propylamino)-β-hydroxyethyl]benzene hydrochloride], the IC50 [1] is reported as 350 µM.

For `CCOC(=O)[C@@H](N)CS` [L-Cysteine ethyl ester], the IC50 [1] was > 4000 µM.

With `O=C1CCN(c2ccccc2)N1` [Phenidone] the IC50 [1] was 1300 µM.

With Pyrithioxin the IC50 [1] was > 4000 µM.

`NC(=O)c1ccc([N+](=O)[O-])cc1Cl` [Aklomide] showed an IC50 [1] of 350 µM.

For `O=c1c(O)c(-c2ccc(O)c(O)c2)oc2ccccc12` [3,3′,4′-Trihydroxyflavone], the IC50 [1] was 1800 µM.

With `Nc1ccc(C(=O)O)c(O)c1` [4-Amino-salicylic acid] the IC50 [1] was > 4000 µM.

Work on `CC(CCc1ccccc1)NC(C)C(O)c1ccc(O)cc1` (stereo not drawn) [Nylidrin] yielded an IC50 [1] of 1800 µM.
